Results as given in ChEMBL document CHEMBL3600352, “Design, synthesis and biological evaluation of isoquinoline-based derivatives as novel histone deacetylase inhibitors” (Bioorg Med Chem, 2015).

Tests used:
RPMI-8226 = assay: Cytotoxicity against human RPMI8226 cells assessed as cell viability after 72 hrs by CCK8 assay; assay type: functional, cell-based; conditions: RPMI-8226, 72 h
Histone deacetylase 3 = Histone deacetylase 3 (Homo sapiens, UniProt O15379); assay: Inhibition of recombinant His6-tagged GST-fused human HDAC3 expressed in baculovirus infected insect High5 cells using Ac-Lys-Tyr-Lys(epsilon-acetyl)-AMC as substrate after 24 hrs
[1] = biological target: T1, Protein deacetylase HDAC6 (Homo sapiens, UniProt Q9UBN7); assay: Inhibition of recombinant His6-tagged GST-fused human HDAC6 expressed in baculovirus infected insect High5 cells using Boc-Lys-(epsilon-acetyl)-AMC as substrate after 3 hrs
T1 sequence (Q9UBN7 whole entry): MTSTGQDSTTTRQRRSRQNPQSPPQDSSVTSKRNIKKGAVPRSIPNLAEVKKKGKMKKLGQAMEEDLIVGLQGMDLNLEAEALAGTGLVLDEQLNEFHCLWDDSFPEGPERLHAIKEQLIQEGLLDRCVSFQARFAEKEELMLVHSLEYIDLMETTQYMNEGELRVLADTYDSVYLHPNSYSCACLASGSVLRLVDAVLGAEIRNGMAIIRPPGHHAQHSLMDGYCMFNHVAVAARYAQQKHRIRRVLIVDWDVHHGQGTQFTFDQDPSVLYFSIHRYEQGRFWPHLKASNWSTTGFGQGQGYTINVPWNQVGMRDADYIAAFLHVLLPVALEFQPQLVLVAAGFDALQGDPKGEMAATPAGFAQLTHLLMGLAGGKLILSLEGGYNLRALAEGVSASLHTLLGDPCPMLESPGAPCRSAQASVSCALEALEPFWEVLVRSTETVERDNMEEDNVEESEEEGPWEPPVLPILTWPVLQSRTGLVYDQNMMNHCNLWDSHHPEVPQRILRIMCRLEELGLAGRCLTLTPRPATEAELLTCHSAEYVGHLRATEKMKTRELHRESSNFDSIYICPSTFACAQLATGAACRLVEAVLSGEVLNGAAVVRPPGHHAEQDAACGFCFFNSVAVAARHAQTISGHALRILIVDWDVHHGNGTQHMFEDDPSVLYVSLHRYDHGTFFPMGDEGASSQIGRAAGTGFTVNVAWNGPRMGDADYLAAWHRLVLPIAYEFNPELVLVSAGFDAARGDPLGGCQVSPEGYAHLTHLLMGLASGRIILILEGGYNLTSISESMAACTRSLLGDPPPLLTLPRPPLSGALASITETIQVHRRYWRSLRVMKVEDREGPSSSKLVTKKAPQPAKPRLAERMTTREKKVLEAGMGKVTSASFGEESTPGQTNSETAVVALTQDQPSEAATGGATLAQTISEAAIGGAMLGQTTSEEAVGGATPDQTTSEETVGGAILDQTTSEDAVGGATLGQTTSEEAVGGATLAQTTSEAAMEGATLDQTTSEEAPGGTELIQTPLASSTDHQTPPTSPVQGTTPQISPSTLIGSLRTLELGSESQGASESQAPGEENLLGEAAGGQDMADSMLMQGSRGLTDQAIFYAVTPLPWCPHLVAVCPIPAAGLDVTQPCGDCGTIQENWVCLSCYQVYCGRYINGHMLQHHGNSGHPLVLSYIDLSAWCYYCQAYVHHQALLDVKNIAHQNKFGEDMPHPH

Histone deacetylase 1 = Histone deacetylase 1 (Homo sapiens, UniProt Q13547); assay: Inhibition of recombinant His6-tagged GST-fused human HDAC1 expressed in baculovirus infected insect High5 cells using Ac-Lys-Tyr-Lys(epsilon-acetyl)-AMC as substrate after 24 hrs
HepG2 = assay: Cytotoxicity against human HepG2 cells assessed as cell viability after 72 hrs by CCK8 assay; assay type: functional, cell-based; conditions: HepG2, 72 h
HCT-116 = assay: Cytotoxicity against human HCT116 cells assessed as cell viability after 72 hrs by CCK8 assay; assay type: functional, cell-based; conditions: HCT-116, 72 h
[2] = biological target: Voltage-gated inwardly rectifying potassium channel KCNH2 (Homo sapiens, UniProt Q12809); assay: Inhibition of human ERG overexpressed in CHO cells by Qpatch method; assay type: cell-based
hERG (KCNH2) [3] = biological target: T2, hERG (KCNH2) (Homo sapiens, UniProt Q12809); assay: Inhibition of human ERG overexpressed in CHO cells at 40 uM by Qpatch method relative to control; assay type: cell-based; conditions: CHO cells overexpressing human ERG
[4] = biological target: T3, Histone deacetylase (Homo sapiens) (UniProt Q13547+O15379+Q9UBN7+Q92769+Q9UQL6+Q8WUI4+Q9BY41+Q96DB2+P56524+Q9UKV0+Q969S8); assay: Inhibition of HDAC in human RPMI8226 cells assessed as upregulation of acetylated alpha-tubulin level after 24 hrs by Western blot analysis; assay type: cell-based; conditions: RPMI-8226
[5] = biological target: T3, Histone deacetylase (Homo sapiens); assay: Inhibition of HDAC in human RPMI8226 cells assessed as upregulation of acetylated histone H3 level after 24 hrs by Western blot analysis; assay type: cell-based; conditions: RPMI-8226
hERG (KCNH2) [6] = biological target: T2, hERG (KCNH2); assay: Inhibition of human ERG overexpressed in CHO cells at 3 uM by Qpatch method relative to control; assay type: cell-based; conditions: CHO cells overexpressing human ERG

T2 sequence (Q12809 whole entry): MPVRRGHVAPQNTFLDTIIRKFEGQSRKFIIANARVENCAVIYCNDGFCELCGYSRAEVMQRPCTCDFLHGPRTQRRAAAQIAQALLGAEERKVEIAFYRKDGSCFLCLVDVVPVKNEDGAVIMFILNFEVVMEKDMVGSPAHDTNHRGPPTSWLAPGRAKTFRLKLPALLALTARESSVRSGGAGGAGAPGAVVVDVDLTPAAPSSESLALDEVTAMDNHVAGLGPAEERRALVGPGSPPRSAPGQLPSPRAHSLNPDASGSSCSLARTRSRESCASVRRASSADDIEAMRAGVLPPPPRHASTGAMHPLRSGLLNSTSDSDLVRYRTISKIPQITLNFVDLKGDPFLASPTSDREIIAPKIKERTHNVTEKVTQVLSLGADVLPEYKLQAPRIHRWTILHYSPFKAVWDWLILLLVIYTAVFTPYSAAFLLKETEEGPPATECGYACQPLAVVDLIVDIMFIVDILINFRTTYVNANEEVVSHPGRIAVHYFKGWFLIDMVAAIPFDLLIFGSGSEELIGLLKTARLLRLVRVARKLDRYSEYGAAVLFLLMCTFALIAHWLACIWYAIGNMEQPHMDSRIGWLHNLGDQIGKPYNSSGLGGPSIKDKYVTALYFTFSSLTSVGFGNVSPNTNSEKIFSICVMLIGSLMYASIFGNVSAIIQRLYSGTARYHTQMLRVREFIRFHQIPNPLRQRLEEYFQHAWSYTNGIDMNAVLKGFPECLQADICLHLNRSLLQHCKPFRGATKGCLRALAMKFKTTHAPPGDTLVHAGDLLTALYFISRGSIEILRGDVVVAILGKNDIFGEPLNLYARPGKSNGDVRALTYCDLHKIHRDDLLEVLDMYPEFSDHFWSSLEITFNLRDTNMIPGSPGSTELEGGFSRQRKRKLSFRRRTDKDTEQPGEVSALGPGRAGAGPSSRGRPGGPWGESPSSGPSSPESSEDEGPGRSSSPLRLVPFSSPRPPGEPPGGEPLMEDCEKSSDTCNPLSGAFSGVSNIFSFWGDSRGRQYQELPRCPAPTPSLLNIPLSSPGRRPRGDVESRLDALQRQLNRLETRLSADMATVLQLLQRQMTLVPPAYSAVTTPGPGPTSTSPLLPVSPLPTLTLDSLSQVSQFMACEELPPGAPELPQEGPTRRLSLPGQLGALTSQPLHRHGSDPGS
Sequence of Histone deacetylase 3 (O15379 whole entry, the tested form may be a part): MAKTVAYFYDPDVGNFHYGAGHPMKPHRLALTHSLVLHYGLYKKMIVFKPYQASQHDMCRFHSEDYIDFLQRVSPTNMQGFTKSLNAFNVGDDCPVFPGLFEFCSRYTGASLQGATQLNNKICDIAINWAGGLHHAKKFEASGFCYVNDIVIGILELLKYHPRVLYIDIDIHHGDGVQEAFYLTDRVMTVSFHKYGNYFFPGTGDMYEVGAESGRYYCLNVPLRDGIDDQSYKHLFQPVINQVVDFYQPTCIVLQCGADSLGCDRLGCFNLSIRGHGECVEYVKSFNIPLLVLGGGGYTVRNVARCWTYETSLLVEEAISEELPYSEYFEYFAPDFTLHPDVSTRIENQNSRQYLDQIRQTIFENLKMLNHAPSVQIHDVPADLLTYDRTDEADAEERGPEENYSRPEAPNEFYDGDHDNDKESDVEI
Sequence of Histone deacetylase 1 (Q13547 whole entry, the tested form may be a part): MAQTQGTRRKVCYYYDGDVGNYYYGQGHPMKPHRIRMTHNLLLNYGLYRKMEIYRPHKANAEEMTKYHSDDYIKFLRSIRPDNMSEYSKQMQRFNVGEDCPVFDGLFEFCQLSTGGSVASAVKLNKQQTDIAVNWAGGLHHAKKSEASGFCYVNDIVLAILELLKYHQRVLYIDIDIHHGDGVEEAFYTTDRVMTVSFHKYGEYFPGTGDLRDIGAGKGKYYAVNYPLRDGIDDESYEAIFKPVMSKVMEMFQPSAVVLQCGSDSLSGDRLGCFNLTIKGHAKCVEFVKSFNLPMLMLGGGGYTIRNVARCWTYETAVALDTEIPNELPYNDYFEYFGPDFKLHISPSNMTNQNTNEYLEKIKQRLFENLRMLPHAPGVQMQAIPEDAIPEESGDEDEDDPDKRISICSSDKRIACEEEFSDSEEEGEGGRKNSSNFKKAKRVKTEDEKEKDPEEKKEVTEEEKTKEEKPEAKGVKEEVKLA
Sequence of Voltage-gated inwardly rectifying potassium channel KCNH2 (Q12809 whole entry): as the sequence (Q12809 whole entry) above

SMILES	IC50 (Histone deacetylase 3)	IC50 [1]	IC50 (Histone deacetylase 1)	inhibition [4]	inhibition [5]	IC50 (RPMI-8226)	IC50 (HepG2)	IC50 (HCT-116)	IC50 [2]	inhibition at 40 µM (hERG (KCNH2) [3])	inhibition at 3 µM (hERG (KCNH2) [6])
CC(C)CCn1ccc2ccc(NC(=O)CCCCCCC(=O)NO)cc2c1=O	69.2 nM	54.2 nM	66 nM			1800 nM					
Cc1ccc(Nc2nccc3ccc(NCc4ccc(/C=C/C(=O)NO)cc4)cc23)c(Cl)c1	475 nM	286 nM	571 nM			2710 nM					
O=C(COc1ccc(C(=O)NO)cc1)Nc1ccc2ccnc(Nc3ccc4ccccc4c3)c2c1	276 nM	545 nM	272 nM			7300 nM					
Cc1ccc(Nc2nccc3ccc(NCc4ccc(C(=O)NO)cc4)cc23)cc1	264 nM	352 nM	323 nM			> 20000 nM					
COCCN(CCOC)c1nccc2ccc(NC(=O)CCCCCCC(=O)NO)cc12	192 nM	148 nM	263 nM			7710 nM					
CCN(CC)CCn1ccc2ccc(NC(=O)CCCCCCC(=O)NO)cc2c1=O	74.4 nM	38.7 nM	69 nM			2160 nM					
O=C(CCCCCCC(=O)Nc1ccc2ccnc(N3CCOCC3)c2c1)NO	40.8 nM	29.5 nM	45.9 nM			1330 nM	14000 nM	280 nM			
COc1cc(N)c(Cl)cc1C(=O)NC1CCN(CCCOc2ccc(F)cc2)CC1OC (stereo not drawn) [CISAPRIDE]											98.7%
COc1ccc(Cn2ccc3ccc(NC(=O)CCCCCCC(=O)NO)cc3c2=O)c(OC)c1	108 nM	100 nM	98.1 nM			2640 nM					
Cc1ccc(Nc2nccc3ccc(NCc4ccc(/C=C/C(=O)NO)cc4)cc23)cc1	176 nM	58.9 nM	205 nM			2040 nM					
Cc1ccc(Nc2nccc3ccc(NCc4ccc(/C=C/C(=O)NO)cc4)cc23)c(Br)c1	633 nM	304 nM	439 nM			5220 nM					
CCCCn1ccc2ccc(NC(=O)CCCCCCC(=O)NO)cc2c1=O	92 nM	32.1 nM	65.8 nM			1880 nM	18500 nM	1720 nM			

More lines, in order of falling IC50 (Histone deacetylase 3), values ahead:

IC50 (Histone deacetylase 3)	IC50 [1]	IC50 (Histone deacetylase 1)	inhibition [4]	inhibition [5]	SMILES	IC50 (RPMI-8226)	IC50 (HepG2)	IC50 (HCT-116)	IC50 [2]	inhibition at 40 µM (hERG (KCNH2) [3])	inhibition at 3 µM (hERG (KCNH2) [6])
39.7 nM	40.9 nM	35.4 nM			Cc1ccc(Nc2nccc3ccc(NC(=O)CCCCCCC(=O)NO)cc23)c(F)c1	2040 nM					
36 nM	25 nM	41.6 nM			CC(C)N1CCN(c2nccc3ccc(NC(=O)CCCCCCC(=O)NO)cc23)CC1	1350 nM					
21.6 nM	7.96 nM	17.5 nM	Dose-dependent effect	Dose-dependent effect	O=C(CCCCCCC(=O)Nc1ccc2ccnc(Nc3cccc(Cl)c3F)c2c1)NO	720 nM					
21.2 nM	29.9 nM	19.5 nM			Cc1ccc(Nc2nccc3ccc(NC(=O)CCCCCCC(=O)NO)cc23)c(Cl)c1	520 nM	10000 nM	170 nM			
18.9 nM	11 nM	18 nM			O=C(CCCCCCC(=O)Nc1ccc2ccnc(Nc3ccccc3F)c2c1)NO	940 nM					
17.6 nM	6.26 nM	15.4 nM			Cc1ccc(Nc2nccc3ccc(NC(=O)CCCCCCC(=O)NO)cc23)c(Br)c1	470 nM	8450 nM	260 nM			
16.7 nM	6.83 nM	15.5 nM	Dose-dependent effect	Dose-dependent effect	O=C(CCCCCCC(=O)Nc1ccc2ccnc(Nc3ccc(Br)cc3F)c2c1)NO	460 nM	5870 nM	190 nM	> 40000 nM	43.7%	
14 nM	13.6 nM	27.9 nM			COCCCNc1nccc2ccc(NC(=O)CCCCCCC(=O)NO)cc12	2710 nM					
5.42 nM	5.15 nM	5.75 nM			O=C(CCCCCCC(=O)Nc1ccc2ccnc(Nc3ccc4ccccc4c3)c2c1)NO	740 nM			> 40000 nM	17.5%	
4 nM	3.77 nM	4.17 nM			Cc1ccc(Nc2nccc3ccc(NC(=O)CCCCCCC(=O)NO)cc23)cc1	770 nM					
